# Laboratory results published in article PMC12921516 (ACS Bio & Med Chem Au, 2025).
# Tests used:
# [1] = test system: insulin-resistant HepG2 cells; assay: Western blotting, insulin-resistant HepG2 model; assay type: cell-based, human; details: 24 h
# Description: (§1) HepG2 cells were obtained directly from ATCC (HB-8065) and cultured in DMEM with low glucose, supplemented with fetal bovine serum, 100 U/mL penicillin G, and […] streptomycin. The media was freshly prepared and sterilized by filtration. Cells were maintained with a maximum of 10 passages before being discarded. For cell counting, the cells were washed twice with phosphate-buffered saline (PBS), trypsinized, and counted using a Neubauer chamber. For the insulin-resistant model, 75,000 cells per well were seeded in 6-well plates at 37 °C in 5% CO2 and cultured for 72 h. Subsequently, insulin (0.1 μM) was added to induce insulin resistance for 24 h. After this period, inhibitors were incubated for 24 h, followed by a final 30 min insulin stimulation (0.1 μM) before protein extraction. For the normal model, 75,000 cells per well were seeded in 6-well plates at 37 °C in 5% CO2 and cultured for 96 h. After that, the cells were incubated with the inhibitors for 24 h, followed by protein extraction.
# (§2) Treated cells were washed twice with 1 mL of PBS, and proteins were extracted using 300 μL of a buffer solution containing 10% sodium deoxycholate in 10% TEAB, supplemented with a protease and phosphatase inhibitor cocktail. The extracts were heated at 80 °C for 5 min and dissociated by repeated passages through an insulin syringe. The cell extracts were centrifuged at 15,000 rpm for 15 min at 4 °C, and the supernatant was collected. Protein quantification was performed using the bicinchoninic acid assay, and aliquots were prepared for Western blotting. SDS-PAGE was conducted, and proteins were transferred onto a nitrocellulose membrane. The membrane was blocked with 10% skim milk in TBST for 1 h and incubated overnight with primary antibodies (1:400 dilution). Secondary antibodies conjugated to horseradish peroxidase were diluted 1:2,000, and the membranes were incubated for 1 h at room temperature. Blots were visualized using the ChemiDoc MP (Bio-Rad), and densitometric analysis was performed with ImageJ (U.S. National Institutes of Health). Statistical analyses were conducted using GraphPad Prism 8.0.
# resistance model in HepG2 cells . a) Western blotting representative analysis (n=3) of PTP1B, p -AKT, p-IRS1 and p-STAT3 levels
# of HepG2 cells treated with the compounds at 24 h of treatment. β-actin was employed as loading control. b) Densitometric
# analysis of western blot images employing ImageJ analysis software. Bar graphs represent the mean ± SEM of normalized values.
# The control levels were set to 1. Asterisks indicate statistical significance according to the Dunn test. p* < 0.05.
# (§3) (1 picture or pasted object on this page, not shown here)
# HepG2 cells = assay: Western blotting, HepG2 normal model; assay type: cell-based, human; details: 24 h
# Description: as §1, §2
# compounds at 24 h of treatment. β-actin was employed as loading control. b) Densitometric analysis of western blot images
# employing ImageJ analysis software. Bar graphs represent the mean ± SEM of normalized values. The control levels were set to
# 1. Asterisks indicate statistical significance according to the Dunn test. p* < 0.05
# as §3
# hPTP1B1–400 = biological target: T1, hPTP1B1–400 (Homo sapiens, UniProt P18031); assay: PTP1B inhibition, pNPP hydrolysis, long form; assay type: biochemical; details: pNPP substrate, 15 min 37 °C, pH 6.8; ± S.D
# T1 construct: h PTP1B 1–400 IC 50 (μM ± S.D); made in house
# T1 sequence (P18031 1-400): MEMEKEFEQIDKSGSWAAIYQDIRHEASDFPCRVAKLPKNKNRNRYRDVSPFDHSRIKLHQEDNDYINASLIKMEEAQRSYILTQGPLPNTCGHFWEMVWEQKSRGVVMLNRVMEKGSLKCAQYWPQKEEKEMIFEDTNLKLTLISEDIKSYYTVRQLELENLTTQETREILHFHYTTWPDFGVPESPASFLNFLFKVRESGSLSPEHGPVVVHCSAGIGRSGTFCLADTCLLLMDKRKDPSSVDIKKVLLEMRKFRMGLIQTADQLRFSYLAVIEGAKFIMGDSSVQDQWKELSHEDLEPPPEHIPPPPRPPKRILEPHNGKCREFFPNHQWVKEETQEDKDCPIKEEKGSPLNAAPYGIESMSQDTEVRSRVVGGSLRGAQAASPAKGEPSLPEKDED
# Description: The inhibitory activity of PTP1B was assessed using the long form of the PTP1B enzyme (hPTP1B1–400). This enzyme comprises a highly conserved N-terminal catalytic domain, known as the PTP domain (PTP1B1–300), in addition to an intrinsically disordered regulatory domain (PTP1B301–400).
# The IC50 values obtained from these tests are detailed in Table .
# Aliquots of 0–10 μL of the test compounds (triplicate) were taken and incubated for 15 min at 37 °C with 85 μL of Tris buffer solution (50 mM, pH 6.8) containing PTP1B enzyme and 5 μL of p-nitrophenyl phosphate substrate (pNPP, 10 mM). The absorbance of the hydrolysis product, p-nitrophenol (pNP), was measured at 405 nm using a 96-microplate absorbance reader (Accuris SmartReader 96). The inhibitory activity was determined according to eq . %enzyme=(A405b/A405c)×100 1 Where: % enzyme is the percentage of inhibition for PTP1B or TCPTP
# The IC50 was calculated using regression analysis, eq : %inhibition=A100/1+(I/IC50)^s 2 Where: A100: Maximum inhibition
# [2] = test system: STZ-induced diabetic rats; details: earlier study of the group; cited from earlier work
# normoglycemic CD1 mice = assay: Oral glucose tolerance test (OGTT); assay type: in vivo; details: 45 mg/kg, glucose 2 g/kg
# Description: The studies were carried out on compounds 4b, 4g, and 5g using both normoglycemic CD1 mice and a mouse model of noninsulin-dependent diabetes mellitus (NIDDM). An oral glucose tolerance test (OGTT) was conducted on the normoglycemic mice to evaluate the hypoglycemic activity of the compounds, while an insulin tolerance test (ITT) was performed on hyperglycemic CD1 mice to assess the compounds’ capacity to enhance insulin sensitivity in streptozotocin-induced diabetic mice. Pioglitazone and GA were included as positive controls.
# Healthy six-week-old male CD-1 mice, weighing between 30 and 40 g, were maintained at a temperature of 25 ± 2 °C, under a 12-h light/dark cycle and 45–65% humidity throughout the experimental period. The mice were provided with a rodent pelleted diet (Harlan Laboratories, Indianapolis, USA) and had access to water ad libitum. Sixteen hours before the experiment, all mice were fasted but still had free access to water. All animal procedures were conducted in accordance with the Mexican Federal Regulations for Animal Experimentation and Care (SAGARPA, NOM-062-ZOO-1999, Mexico) and received approval from the Institutional Animal Care and Use Committee, following guidelines outlined in the US National Institutes of Health publication (No. 85–23, revised 1985).
# Animals were categorized into five groups, each consisting of four mice (n = 4). The experimental groups received an oral suspension of compounds 4b, 4g, and 5g, prepared in a 10% Tween 20/water solution, at a dosage of 50 mg/kg body weight. A control group was treated with only the 10% Tween 20 solution. The final group was administered pioglitazone at a dose of 45 mg/kg, which is recognized as a reference drug for insulin sensitization. To evaluate glucose levels, blood samples were collected from the tails of the mice at 0, 30, 60, 90, and 120 min after the administration of the vehicle, test compound, or drug. Blood glucose concentration was measured using a commercial glucometer (Accu-Chek, Performa; Roche) and the enzymatic glucose dehydrogenase method. The percentage variation in glycemia was calculated by comparing the selected postadministration glycemia (G x ) with the initial value (G0) using the following formula: %variationofglycemia=[(Gx−G0)/G0]×100 where G0 represents the initial glycemia values and Gx indicates the glycemia values at +30, + 60, + 90, and +120 min, respectively.
# To determine the hypoglycemic effect of the compounds on nondiabetic animals, the compounds 4b, 4g, and 5g were administered intragastrically. Pioglitazone was used as a positive control. After 30 min, five mice/group (CD-1) were subjected to OGTT. The test was performed using glucose (2 g/kg) as substrate.
# [3] = test system: STZ-induced diabetic CD-1 mice; assay: Insulin tolerance test (ITT); assay type: in vivo; details: 45 mg/kg, insulin 0.75 IU after 30 min
# Description: The studies were carried out on compounds 4b, 4g, and 5g using both normoglycemic CD1 mice and a mouse model of noninsulin-dependent diabetes mellitus (NIDDM). An oral glucose tolerance test (OGTT) was conducted on the normoglycemic mice to evaluate the hypoglycemic activity of the compounds, while an insulin tolerance test (ITT) was performed on hyperglycemic CD1 mice to assess the compounds' capacity to enhance insulin sensitivity in streptozotocin-induced diabetic mice. Pioglitazone and GA were included as positive controls. […] Healthy six-week-old male CD-1 mice, weighing between 30 and 40 g, were maintained at a temperature of 25 ± 2 °C, under a 12-h light/dark cycle and 45-65% humidity throughout the experimental period. The mice were provided with a rodent pelleted diet (Harlan Laboratories, Indianapolis, USA) and had access to water ad libitum. Sixteen hours before the experiment, all mice were fasted but still had free access to water. All animal procedures were conducted in accordance with the Mexican Federal Regulations for Animal Experimentation and Care (SAGARPA, NOM-062-ZOO-1999, Mexico) and received approval from the Institutional Animal Care and Use Committee, following guidelines outlined in the US National Institutes of Health publication (No. 85-23, revised 1985). Streptozotocin (STZ) was dissolved in citrate buffer (pH 4.5), while nicotinamide was dissolved in a normal physiological saline solution. The noninsulin-dependent diabetes (NIDD) mouse model was induced in overnight-fasted mice through a single intraperitoneal injection of STZ (100 mg/kg). Nicotinamide was administered 15 min prior, at a dose of 20 mg/kg via intraperitoneal injection. […] Roche). […] Animals were categorized into five groups, each consisting of four mice (n = 4). The experimental groups received an oral suspension of compounds 4b, 4g, and 5g, prepared in a 10% Tween 20/water solution, at a dosage of 50 mg/kg body weight. A control group was treated with only the 10% Tween 20 solution. The final group was administered pioglitazone at a dose of 45 mg/kg, which is recognized as a reference drug for insulin sensitization. To evaluate glucose levels, blood samples were collected from the tails of the mice at 0, 30, 60, 90, and 120 min after the administration of the vehicle, test compound, or drug. Blood glucose concentration was measured using a commercial glucometer (Accu-Chek, Performa; Roche) and the enzymatic glucose dehydrogenase method. The percentage variation in glycemia was calculated by comparing the selected postadministration glycemia (G x ) with the initial value (G0) using the following formula: %[…]=[(Gx-G0)/G0]×100 where G0 represents the initial glycemia values and Gx indicates the glycemia values at +30, + 60, + 90, and +120 min, respectively. To evaluate the ability of GA derivatives to enhance insulin sensitivity in STZ-induced diabetic CD-1 mice, compounds 4b, 4g, and 5g were tested. Glycyrrhetinic acid (GA) and Pioglitazone served as positive controls. The GA derivatives and the positive controls were administered to the diabetic animals, followed by the administration of human rapid-acting insulin (0.75 IU) after 30 min. Subsequently, glucose levels were measured every 15 min.
structure (smiles),measurement,setting,value
CN(C)C(=N)N=C(N)N [Metformin],AKT phosphorylation (p-AKT) levels,[1],notable increase
same,PTP1B levels,[1],"neither metformin, ursolic acid, nor the GA derivatives significantly reduced PTP1B levels"
same,AKT phosphorylation (p-AKT) levels,HepG2 cells,notable increase
same,PTP1B levels,HepG2 cells,"neither metformin, ursolic acid, nor the GA derivatives significantly reduced PTP1B levels"
"Cc1ccc(-n2ncc3c2C(C)(C)[C@@H]2CC[C@]4(C)[C@H](C(=O)C=C5[C@@H]6C[C@@](C)(C(=O)O)CC[C@]6(C)CC[C@]54C)[C@@]2(C)C3)cc1 [FC-122, reference compound]",IC50,hPTP1B1–400,2140 ± 150 nM
same,antihyperglycemic effects,[2],"superior antihyperglycemic effects compared to glibenclamide and acarbose, but did not outperform pioglitazone"
"CCc1ccc(CCOc2ccc(CC3SC(=O)NC3=O)cc2)nc1 (centres unmarked) [Pioglitazone, reference compound]",hypoglycemic effect in OGTT,normoglycemic CD1 mice,the most significant reduction in the hyperglycemic peak
same,glycemia variation in ITT,[3],markedly decrease glycemia variation
